Here are results for one compound from patent US20240165180A1, “Processes for Extracting Muscimol from Amanita Muscaria” (priority 2021, published 2024).

The data set is described as follows: Heat exposure of muscimol during distillation. Format: physicochemical. The settings on record: after being exposed to heat for 3 hours (distillation). The procedure:
In one example, distillation is performed for about 0.5 hours to about 6 hours. In some embodiments, distillation is performed for about 5 to about 6 hours. In another example, it is performed for about 2 to about 3 hours. In another example, it is performed for about 3 hours. […] However, in some embodiments, further distillation beyond 3 hours, such as 4 hours, 5 hours, 6 hours, or more than 6 hours, may be advantageous. In some embodiments, the resulting muscimol extract is a liquid.
The refluxed extract was then distilled for a period of 3 hours. Samples were taken prior to distillation, after 1 hour, 2 hours, and at 3 hours of distillation, as discussed further below. After distillation, the filtrate was cooled to 3° C. in a refrigerator. After about 3 hours of cooling, there was coagulated material suspended in the filtrate. The coagulated material in the filtrate was removed via vacuum filtration through the vacuum filtration setup described above (without the cheesecloth). After filtration, the filter setup was rinsed under vacuum with 30 mL of distilled water into the filtrate.

Regarding `NCc1cc(=O)[nH]o1` [muscimol, 5-(Aminomethyl)-1,2-oxazol-3(2H)-one], the stability to heat result was “begins degrading (to a very minimal degree)”.
